This note sets out measurements from US20110159019A1, “2,4-DIAMINOPYRIMIDINE COMPOUND” (priority 2008, published 2011).

Counter-ions that a name gives are not always drawn.

The first data set deals with T1, Full-length human PKCθ (Homo sapiens, UniProt Q04759).
T1 construct: Full-length human PKCθ (Carna Biosciences, final 31 ng/mL); purchased Carna Biosciences
T1 sequence (Q04759 whole entry): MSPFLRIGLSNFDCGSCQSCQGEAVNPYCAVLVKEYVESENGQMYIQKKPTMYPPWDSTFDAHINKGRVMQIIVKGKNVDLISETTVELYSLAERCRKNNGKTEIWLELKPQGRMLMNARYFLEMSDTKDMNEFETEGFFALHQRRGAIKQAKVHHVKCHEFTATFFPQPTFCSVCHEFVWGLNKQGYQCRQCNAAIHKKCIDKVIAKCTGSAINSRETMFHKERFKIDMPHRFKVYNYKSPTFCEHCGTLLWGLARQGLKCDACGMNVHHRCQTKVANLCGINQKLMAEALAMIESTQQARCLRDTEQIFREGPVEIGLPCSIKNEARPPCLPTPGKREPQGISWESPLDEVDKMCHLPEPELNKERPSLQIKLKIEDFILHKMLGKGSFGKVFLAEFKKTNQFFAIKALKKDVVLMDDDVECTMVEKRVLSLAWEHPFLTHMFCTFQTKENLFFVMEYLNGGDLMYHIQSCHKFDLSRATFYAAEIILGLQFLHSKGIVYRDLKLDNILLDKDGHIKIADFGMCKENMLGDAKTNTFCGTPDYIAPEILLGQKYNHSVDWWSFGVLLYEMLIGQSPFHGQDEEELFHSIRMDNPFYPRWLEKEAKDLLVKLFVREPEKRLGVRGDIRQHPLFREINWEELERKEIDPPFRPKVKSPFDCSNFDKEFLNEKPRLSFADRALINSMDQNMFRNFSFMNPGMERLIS
The data set can be described thus: Measurement of human PKCθ enzyme inhibition activity (HTRF KinEASE S1 kit). The following applies: full-length human PKCθ, ATP 30 μM, HTRF; read-out: IC50 (nM), human PKCθ enzyme inhibition. Format: biochemical. As for the experimental part:
Test Method 1: Measurement of Human PKCθ Enzyme Inhibition Activity
The test was carried out using a HTRF® KinEASE™ S1 kit (CIS bio). […] Then, 3 μL of an ATP liquid (final 30 μM) was dispensed therein to carry out an enzyme reaction at room temperature for 1 hour.
Ex represents Compound No. of Examples as described later.
On the technique in general: In TR-FRET formats the signal depends on donor and acceptor labels being close together.
The term IC50 denotes the concentration at which inhibition is half-maximal. In the case of `N#Cc1cnc(NCc2ccccc2OC(F)F)nc1NC[C@]12CC3C[C@H](C1)[C@@H](NC[C@H]1CC[C@H](O)CC1)[C@@H](C3)C2` (relative stereo) [Example 348], the concentration for half-maximal inhibition (IC50) came out at 0.41 nM. The same measure, in the same setting: as for `CC(Nc1ncc(C#N)c(NC[C@]23CC4C[C@H](C2)[C@@H](N)[C@@H](C4)C3)n1)c1ccccc1Cl` (relative stereo) [Example 302], the figure is 14 nM. The same measure, in the same setting: for `N#Cc1cnc(NCc2ccccc2OC(F)(F)F)nc1NCCC(=O)N1CCCNCC1` [Example 387] the value was 77 nM. The same measure, in the same setting: as for `N#Cc1cnc(NCc2ccccc2Cl)nc1NC[C@]12CC3C[C@H](C1)[C@@H](NC[C@H]1CC[C@H](CO)CC1)[C@@H](C3)C2` (relative stereo) [Example 341], the figure is 1.7 nM; as for `C[C@]1(O)CC[C@H](CN[C@@H]2[C@@H]3CC4C[C@H]2C[C@@](CNc2nc(NCc5ccccc5OC(F)(F)F)ncc2C#N)(C4)C3)CC1` (relative stereo) [Example 363], 0.58 nM.

`N#Cc1cnc(NCc2ccccc2OC(F)(F)F)nc1NC[C@]12CC3C[C@H](C1)[C@@H](NCc1cccnc1)[C@@H](C3)C2` (relative stereo) [Example 76]: the half-maximal inhibitory concentration (IC50) came to 2.3 nM.

On to `N#Cc1cnc(NCc2ccccc2Cl)nc1NC[C@]12CC3C[C@H](C1)[C@@H](NC1CCN(C(=O)CO)CC1)[C@@H](C3)C2` [Example 205], for which the IC50 was found to be 0.83 nM. As for `CSc1ccccc1CNc1ncc(C#N)c(NC[C@]23CC4C[C@H](C2)[C@@H](NC[C@H]2CC[C@@H](O)CC2)[C@@H](C4)C3)n1` (relative stereo) [Example 264], the half-inhibitory concentration (IC50) came out at 1.9 nM. Regarding `N[C@@H]1[C@@H]2CC3C[C@H]1C[C@@](CNc1nc(NCc4ccccc4OC(F)(F)F)ncc1F)(C3)C2` (relative stereo) [Example 390], the IC50 is 2.1 nM. For `N#Cc1cnc(NCc2ccccc2Cl)nc1NC[C@]12CC3C[C@H](C1)[C@@H](NCCCO)[C@@H](C3)C2` (relative stereo) [Example 28], the half-maximal inhibitory concentration (IC50) came out at 1.3 nM.

For `N[C@@H]1[C@@H]2CC3C[C@H]1C[C@@](CNc1nc(NCc4ccccc4OC(F)(F)F)ncc1C(F)(F)F)(C3)C2` (relative stereo) [Example 178], the IC50 worked out at 7.6 nM. Still for that read-out and setting: as for `N#Cc1cnc(NCc2ccccc2Cl)nc1NC[C@]12CC3C[C@H](C1)C(N1CCNCC1)[C@@H](C3)C2` (stereo partly drawn) [Example 319], the figure is 4 nM; as for `N#Cc1cnc(NCc2ccccc2Cl)nc1NC[C@]12CC3C[C@H](C1)[C@@H](N1CC(O)C1)[C@@H](C3)C2` [Example 211], 0.96 nM; as for `N#Cc1cnc(NCc2ccccc2Cl)nc1NC[C@]12CC3C[C@H](C1)[C@@H](NCC(=O)N1CCC(O)CC1)[C@@H](C3)C2` (relative stereo) [Example 204], 11 nM. Still for that read-out and setting: for `N#Cc1cnc(NCc2ccccc2Cl)nc1NC[C@]12CC3C[C@H](C1)[C@@H](N[C@H]1CC[C@H](O)CC1)[C@@H](C3)C2` (relative stereo) [Example 60] the value was 1.1 nM; for `N#Cc1cnc(NCc2ccccc2OC(F)(F)F)nc1NC[C@@H]1CC[C@@H](N)C1` [Example 126], 100 nM; for `COc1ccccc1CNc1ncc(C#N)c(NC[C@]23CC4C[C@H](C2)[C@@H](NCC(O)CCO)[C@@H](C4)C3)n1` (stereo partly drawn) [Example 189], 1.7 nM.

For the molecule `COc1ccc(Cl)c(CNc2ncc(C#N)c(NC[C@]34CC5C[C@H](C3)[C@@H](N)[C@@H](C5)C4)n2)c1` (relative stereo) [Example 150], the half-inhibitory concentration (IC50) was determined as 5.3 nM. As to `N#Cc1cnc(NCc2ccccc2Cl)nc1NC[C@]12CC3C[C@H](C1)[C@@H](NC1CCNCC1F)[C@@H](C3)C2` (relative stereo) [Example 383], the IC50 turned out to be 1.6 nM. Turning to `N#Cc1cnc(Nc2cccc(Br)c2)nc1NC[C@]12CC3C[C@H](C1)[C@@H](N)[C@@H](C3)C2` [Example 187], the half-inhibitory concentration (IC50) came to 3.8 nM.

Turning to `N#Cc1cnc(NCCc2ccc(O)cc2)nc1NC[C@]12CC3C[C@H](C1)[C@@H](N)[C@@H](C3)C2` [Example 145], the concentration for half-maximal inhibition (IC50) is 1.6 nM. On the same count and under the same terms, for `N#Cc1cnc(NCc2ccccc2OC(F)(F)F)nc1NC[C@]12CC3C[C@H](C1)C[C@@](CN)(C3)C2` [Example 57] the value was 15 nM; for `CN(C)[C@@H]1[C@@H]2CC3C[C@H]1C[C@@](CNc1nc(NCc4ccccc4OC(F)(F)F)ncc1C#N)(C3)C2` (relative stereo) [Example 70], 1.9 nM. Still for that read-out and setting: as for `N#Cc1cnc(NCc2ccccc2OC(F)(F)F)nc1NC[C@]12CC3C[C@H](C1)[C@@H](N[C@H]1CC[C@@H](NC4CCOCC4)CC1)[C@@H](C3)C2` (relative stereo) [Example 284], the figure is 0.28 nM; as for `N#Cc1cnc(NCc2cccnc2Cl)nc1NC[C@]12CC3C[C@H](C1)[C@@H](N)[C@@H](C3)C2` [Example 165], 2.3 nM. The same measure, in the same setting: for `N#Cc1cnc(NCc2ccccc2OC(F)(F)F)nc1NCC1CN2CCC1CC2` (stereo not drawn) [Example 48] the value was 54 nM; for `N[C@@H]1[C@@H]2CC3C[C@H]1C[C@@](CNc1nc(NCc4ccccc4OC(F)(F)F)ncc1[N+](=O)[O-])(C3)C2` (relative stereo) [Example 388], 3.3 nM; for `N#Cc1cnc(NCc2cccc(Cl)c2Cl)nc1NC[C@]12CC3C[C@H](C1)[C@@H](N)[C@@H](C3)C2` (relative stereo) [Example 140], 2.5 nM. Consider `COc1ccc(CO)cc1CNc1ncc(C#N)c(NC[C@]23CC4C[C@H](C2)[C@@H](N)[C@@H](C4)C3)n1` [Example 139], for which the IC50 was 13 nM.

In the case of `N#Cc1cnc(NCc2ccccc2Cl)nc1NC[C@]12CC3C[C@H](C1)C(N1CCC(N)CC1)[C@@H](C3)C2` (relative stereo) [Example 318], the half-inhibitory concentration (IC50) came out at 0.86 nM.

With `CSc1ncccc1CNc1ncc(C#N)c(NC[C@]23CC4C[C@H](C2)[C@@H](NC[C@H]2CC[C@H](CO)CC2)[C@@H](C4)C3)n1` (relative stereo) [Example 342], the IC50 was 0.48 nM. Same read-out and setting: for `COc1ccccc1CNc1ncc(C#N)c(NC[C@]23CC4C[C@H](C2)[C@@H](NCC(CO)CO)[C@@H](C4)C3)n1` (relative stereo) [Example 194] the value was 6.5 nM; for `N#Cc1cnc(NCc2ccccc2OC(F)(F)F)nc1NC[C@H]1C[C@H](N)C1` [Example 125], 89 nM; for `N#Cc1cnc(NCc2ccccc2OC(F)(F)F)nc1NCCC(=O)N1CCNCC1` [Example 156], 67 nM.

`N#Cc1cnc(NCc2ccccc2OC(F)(F)F)nc1NCC1CC2CCC(C1)N2` (stereo not drawn) [Example 170, 4-[(8-azabicyclo[3.2.1]oct-3-ylmethyl)amino]-2-{[2-(trifluoromethoxy)benzyl]amino}pyrimidine-5-carbonitrile dihydrochloride]: the concentration for half-maximal inhibition (IC50) was found to be 110 nM.

For a further data set, the target named is T2, Cytochrome P450 (CYP3A4) (Homo sapiens, UniProt P08684).
T2 construct: human liver microsome (0.1 mg protein/mL); from tissue; host or cells: human liver microsomes
T2 sequence (P08684 whole entry): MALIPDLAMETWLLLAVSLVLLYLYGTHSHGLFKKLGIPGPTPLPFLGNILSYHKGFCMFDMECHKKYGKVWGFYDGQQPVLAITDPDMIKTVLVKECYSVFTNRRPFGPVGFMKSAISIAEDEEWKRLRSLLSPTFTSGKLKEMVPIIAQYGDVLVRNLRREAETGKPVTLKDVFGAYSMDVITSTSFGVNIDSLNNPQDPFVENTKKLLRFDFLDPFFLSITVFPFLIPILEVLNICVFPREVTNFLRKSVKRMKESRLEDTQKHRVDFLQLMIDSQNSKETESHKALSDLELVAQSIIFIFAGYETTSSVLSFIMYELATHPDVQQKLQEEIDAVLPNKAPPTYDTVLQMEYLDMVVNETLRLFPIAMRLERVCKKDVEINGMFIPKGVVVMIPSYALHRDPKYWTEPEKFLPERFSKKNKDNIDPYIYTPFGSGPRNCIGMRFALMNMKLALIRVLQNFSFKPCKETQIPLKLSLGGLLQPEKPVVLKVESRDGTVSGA
The data set is described as follows: Measurement of cytochrome P450 (CYP3A4) enzyme inhibition activity in human liver microsome (inhibition tests I and II, midazolam substrate). The following applies: inhibition test I: 5 μM test compound, 2 μM midazolam, human liver microsome, 37° C. 20 minutes, no preincubation. Format: in vitro ADME. The procedure: Test Method 3: Measurement of Cytochrome P450 (CYP3A4) Enzyme Inhibition Activity i) Inhibition Test I (Calculation of Remaining Rate I)
Using a 96-well plate, 2 μM of a substrate (midazolam), 5 μM of a test compound, and human liver microsome (0.1 mg protein/mL) were incubated at 37° C. for 20 minutes in a total amount of 150 μL of a 100 mM phosphate buffer (pH 7.4) containing 0.1 mM EDTA and 1 mM NADPH. Then, the reaction was stopped by adding 130 μl of an aqueous solution containing 80% acetonitrile. Thereafter, the samples were analyzed by LC/MS/MS, and the remaining rates I were calculated using the following equation 1.
Remaining Rate I(%)=Ai,I/Ao,I×100 (Equation 1)
Ai, I=Amount of produced metabolite after reaction in the presence of the test compound in the inhibition test I Ao, I=Amount of produced metabolite after reaction in the absence of the test compound in the inhibition test I ii) Inhibition Test II (Calculation of Remaining Rate II)
Using a 96-well plate, 5 μM of a test compound and human liver microsome (0.1 mg protein/mL) were incubated at 37° C. for 30 minutes in a total amount of 145 μL of a 100 mM phosphate buffer (pH=7.4) containing 0.1 mM EDTA and 1 mM NADPH. Then, 2 μM of midazolam as the substrate was added thereto at a total amount of 150 μL of and incubated at 37° C. for 20 minutes. After the incubation, the reaction was stopped by adding 130 μL of an aqueous solution containing 80% acetonitrile. Thereafter, the samples were analyzed by LC/MS/MS, and the remaining rate II was calculated using the following equation 2.
Remaining Rate II(%)=Ai,II/Ao,II/(Ai,I/Ao,I)×100 (Equation 2)
Ai, II=Amount of produced metabolite after reaction in the presence of the test compound in the inhibition test II […]=Amount of produced metabolite after reaction in the absence of the test compound in the inhibition test II […]
Ex represents No. of the Example Compounds as described below.
On the technique in general: Liver microsomes are a subcellular fraction often used to study metabolism.
With `COc1ccccc1CNc1ncc(C#N)c(NC[C@]23CC4C[C@H](C2)[C@@H](N[C@H]2CC[C@H](O)CC2)[C@@H](C4)C3)n1` (relative stereo) [Example 62], the “I (%) Remaining Rate I” value is recorded as 87%.

For the molecule `COc1ccccc1CNc1ncc(C#N)c(NC[C@]23CC4C[C@H](C2)[C@@H](NC2CCC(C)(O)CC2)[C@@H](C4)C3)n1` (single isomer, unassigned) [Example 119], the “I (%) Remaining Rate I” value is recorded as 77%.

The same data set, now with this note: inhibition test II: 5 μM test compound preincubated 30 minutes with human liver microsome and NADPH, then 2 μM midazolam 20 minutes; relative to test I.
With `COc1ccccc1CNc1ncc(C#N)c(NC[C@]23CC4C[C@H](C2)[C@@H](N[C@H]2CC[C@H](O)CC2)[C@@H](C4)C3)n1` (relative stereo) [Example 62], the “II (%) Remaining Rate II” value turned out to be 81%. Same read-out and setting: for `COc1ccccc1CNc1ncc(C#N)c(NC[C@]23CC4C[C@H](C2)[C@@H](NC2CCC(C)(O)CC2)[C@@H](C4)C3)n1` (single isomer, unassigned) [Example 119] the value was 80%.
